Assay results taken from patent US8822229B2, “Method for assaying keratan sulfate, assay kit therefor and method for detecting joint disease by using the same” (Seikagaku Corporation, priority 2008, dated 2014).

Tests used:
[1] = tested on: adjuvant-induced arthritis (AIA) model in rats; assay: adjuvant-induced arthritis (AIA) model in rats, left hind paw edema volume; assay type: in vivo, rat; details: incadronate 1 mg/kg s.c. once a day from day 14; day 35 after adjuvant; vs AIA control group
Experimental: (§1) In Example 5, 6-week-old male Lewis rats (SPF, Charles River Laboratories Japan, Inc.) were employed. The adjuvant was prepared by suspending heat-killed Mycobacterium butyricum (product of DIFCO) in liquid paraffin (product of Wako Pure Chemical Industries, Ltd.) at a concentration of 6 mg/mL. The adjuvant was subcutaneously administered to each of the rats in the right hind paw (0.3 mg/paw) without anesthesia. Fourteen days after administration, the rats were divided into 4 groups. To a non-treated normal control group, only liquid paraffin was administered to the rats in a similar manner. From the timing of the grouping, incadronate (Bisphonal (registered trademark) injection (10 mg), product of Astellas Pharma Inc.) was subcutaneously administered to the rats every day (once a day) at a dose of 1 mg/kg to the day before the day of sacrifice. […] The edema volume of the left hind paw was measured by means of a volumetric apparatus (TK-101CMP, product of UNICOM). […] The plasma KS level (non-treated control group, AIA control group, and incadronate-administered group) was determined on day 35 after administration of the adjuvant, by means of a conventional KS assay kit (5D4 assay system) and through the KS assay system of the present invention. […]

[2] = adjuvant-induced arthritis (AIA) model in rats, plasma KS level; assay type: in vivo, rat; details: incadronate 1 mg/kg s.c. once a day from day 14; day 35 after adjuvant; BCD-4/MK-172 assay; vs AIA control group
Experimental: as §1

O=P(O)(O)C(NC1CCCCCC1)P(=O)(O)O [incadronate]
left paw volume [1]: reduced as compared with the AIA control group | plasma KS level [2]: reduced as compared with the AIA control group
